Laboratory results reported in patent US20220009920A1 (GB005, Inc., priority 2020, published 2022).

Key:
Assay in all cases: Large panel kinase profiling
Assay type in all cases: biochemical
Conditions in all cases: 1 μM test article, 1 mM ATP
MAPKAPK3/MK3 = molecular target: T1, MAPKAPK3/MK3 (Homo sapiens, UniProt Q16644)
T1 construct: AssayQuant Technologies, Inc. (service provider)
Method in brief: (§1)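 Kinase activity was followed with the PhosphoSens CSox-Sensor platform, testing compound at 1 μM in the presence of 1 mM ATP. Reactions ran at 30° C. and fluorescence (Ex 360 nm/Em 485 nm) was read kinetically every 1 min.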

MAP3K13 = molecular target: T2, MAP3K13 (Homo sapiens, UniProt O43283)
T2 sequence (O43283 1-966): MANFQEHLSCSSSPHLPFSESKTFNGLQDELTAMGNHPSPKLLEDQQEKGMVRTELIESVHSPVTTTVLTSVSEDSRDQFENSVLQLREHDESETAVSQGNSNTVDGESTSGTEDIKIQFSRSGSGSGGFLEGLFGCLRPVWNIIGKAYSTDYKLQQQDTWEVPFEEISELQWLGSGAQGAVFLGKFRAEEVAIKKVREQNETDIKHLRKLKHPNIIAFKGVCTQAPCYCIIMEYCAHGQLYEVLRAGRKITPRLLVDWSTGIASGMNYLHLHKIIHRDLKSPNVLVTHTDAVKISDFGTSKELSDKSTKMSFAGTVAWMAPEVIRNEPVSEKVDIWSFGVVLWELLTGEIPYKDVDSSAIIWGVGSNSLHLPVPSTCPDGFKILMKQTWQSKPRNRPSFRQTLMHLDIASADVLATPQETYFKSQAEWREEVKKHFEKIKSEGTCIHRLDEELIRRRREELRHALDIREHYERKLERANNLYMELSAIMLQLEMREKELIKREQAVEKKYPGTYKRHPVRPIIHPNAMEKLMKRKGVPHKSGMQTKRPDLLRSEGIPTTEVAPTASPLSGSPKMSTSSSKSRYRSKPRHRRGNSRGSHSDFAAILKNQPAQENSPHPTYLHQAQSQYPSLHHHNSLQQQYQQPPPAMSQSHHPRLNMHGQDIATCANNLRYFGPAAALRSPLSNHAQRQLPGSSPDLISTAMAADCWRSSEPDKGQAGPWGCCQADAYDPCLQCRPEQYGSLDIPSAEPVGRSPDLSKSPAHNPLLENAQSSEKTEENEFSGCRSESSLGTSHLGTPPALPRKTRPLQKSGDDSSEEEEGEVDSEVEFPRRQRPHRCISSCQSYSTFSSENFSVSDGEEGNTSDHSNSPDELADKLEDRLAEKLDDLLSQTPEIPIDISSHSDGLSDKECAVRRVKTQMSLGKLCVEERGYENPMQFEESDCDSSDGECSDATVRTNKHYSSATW
Method in brief: as §1

CSF1R/FMS = molecular target: T3, CSF1R/FMS (Homo sapiens, UniProt P07333)
T3 construct: AssayQuant Technologies, Inc. (service laboratory)
T3 sequence (P07333 20-972): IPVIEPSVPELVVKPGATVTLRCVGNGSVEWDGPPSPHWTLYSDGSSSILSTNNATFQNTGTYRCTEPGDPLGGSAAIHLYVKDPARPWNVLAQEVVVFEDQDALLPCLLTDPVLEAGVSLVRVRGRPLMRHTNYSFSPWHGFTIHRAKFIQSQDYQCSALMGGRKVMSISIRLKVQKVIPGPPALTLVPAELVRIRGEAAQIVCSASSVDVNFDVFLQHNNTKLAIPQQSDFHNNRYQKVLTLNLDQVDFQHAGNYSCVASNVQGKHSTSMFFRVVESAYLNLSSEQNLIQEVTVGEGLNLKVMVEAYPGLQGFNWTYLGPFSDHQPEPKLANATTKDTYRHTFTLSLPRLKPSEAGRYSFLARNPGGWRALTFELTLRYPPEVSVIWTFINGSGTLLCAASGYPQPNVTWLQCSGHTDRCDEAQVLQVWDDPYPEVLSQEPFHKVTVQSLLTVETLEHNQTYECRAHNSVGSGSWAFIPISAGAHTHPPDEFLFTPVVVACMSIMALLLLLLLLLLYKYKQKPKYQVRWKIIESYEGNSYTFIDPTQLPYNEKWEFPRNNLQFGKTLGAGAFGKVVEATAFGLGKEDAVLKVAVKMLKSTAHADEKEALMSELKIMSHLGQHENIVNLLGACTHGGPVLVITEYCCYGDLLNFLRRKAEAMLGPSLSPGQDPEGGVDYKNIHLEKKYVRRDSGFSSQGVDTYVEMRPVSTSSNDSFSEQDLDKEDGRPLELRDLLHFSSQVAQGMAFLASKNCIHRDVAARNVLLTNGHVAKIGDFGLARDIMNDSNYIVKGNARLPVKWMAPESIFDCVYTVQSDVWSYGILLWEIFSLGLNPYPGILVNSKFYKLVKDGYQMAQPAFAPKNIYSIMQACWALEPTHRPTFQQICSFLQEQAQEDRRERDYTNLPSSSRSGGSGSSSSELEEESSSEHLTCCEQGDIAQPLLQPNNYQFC
Method in brief: as §1

MARK4 = molecular target: T4, MARK4 (Homo sapiens, UniProt Q96L34)
T4 construct: AssayQuant Technologies, Inc. (assay service)
T4 sequence (Q96L34 1-752): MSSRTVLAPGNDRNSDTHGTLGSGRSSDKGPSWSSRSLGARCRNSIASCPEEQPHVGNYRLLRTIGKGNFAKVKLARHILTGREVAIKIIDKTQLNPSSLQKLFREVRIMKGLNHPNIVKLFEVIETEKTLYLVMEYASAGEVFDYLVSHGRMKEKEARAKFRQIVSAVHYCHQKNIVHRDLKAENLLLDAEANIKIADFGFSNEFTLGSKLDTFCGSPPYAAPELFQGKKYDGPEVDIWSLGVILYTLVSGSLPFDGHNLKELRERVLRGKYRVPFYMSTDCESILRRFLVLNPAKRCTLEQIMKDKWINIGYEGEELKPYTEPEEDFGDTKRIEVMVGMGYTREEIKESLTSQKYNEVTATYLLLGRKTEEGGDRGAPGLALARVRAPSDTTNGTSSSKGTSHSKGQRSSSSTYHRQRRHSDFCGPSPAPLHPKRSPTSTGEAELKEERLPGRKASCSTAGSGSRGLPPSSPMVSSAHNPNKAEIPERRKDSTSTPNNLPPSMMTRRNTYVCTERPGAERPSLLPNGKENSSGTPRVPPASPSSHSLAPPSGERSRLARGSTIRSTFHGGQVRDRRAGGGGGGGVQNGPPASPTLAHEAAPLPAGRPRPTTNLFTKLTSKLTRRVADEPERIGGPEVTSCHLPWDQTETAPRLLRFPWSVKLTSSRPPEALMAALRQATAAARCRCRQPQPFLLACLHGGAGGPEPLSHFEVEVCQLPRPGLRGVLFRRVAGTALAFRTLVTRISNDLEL
Method in brief: as §1

T1 sequence (Q16644 whole entry): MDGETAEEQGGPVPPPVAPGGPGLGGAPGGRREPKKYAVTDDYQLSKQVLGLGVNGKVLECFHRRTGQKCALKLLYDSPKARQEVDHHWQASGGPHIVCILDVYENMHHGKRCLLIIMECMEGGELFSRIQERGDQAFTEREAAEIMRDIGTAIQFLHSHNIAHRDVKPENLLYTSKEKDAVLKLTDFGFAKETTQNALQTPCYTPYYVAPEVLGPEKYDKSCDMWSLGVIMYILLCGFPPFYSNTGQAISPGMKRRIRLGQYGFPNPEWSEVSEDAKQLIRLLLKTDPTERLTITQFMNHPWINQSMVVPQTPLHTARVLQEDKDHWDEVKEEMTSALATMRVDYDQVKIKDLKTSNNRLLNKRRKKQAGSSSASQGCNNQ

Structure (SMILES) | inhibition at 1 µM (MAPKAPK3/MK3) | inhibition at 1 µM (MAP3K13) | inhibition at 1 µM (CSF1R/FMS) | inhibition at 1 µM (MARK4)
C=CC(=O)N1CCCC(c2c(F)cc(C(N)=O)c3[nH]c4c(c23)CCCCC4)C1 (single isomer, unassigned) [Compound 5-6] | 2.1% | 3.6% | 21.3% | 8.1%
C=CC(=O)N1CCC[C@@H](c2c(F)cc(C(N)=O)c3[nH]c4c(c23)CC2(CC4)CC2)C1 [Compound 6-2, (S)-5-(1-acryloylpiperidin-3-yl)-6-fluoro-1,2,4,9-tetrahydrospiro[carbazole-3,1′-cyclopropane]-8-carboxamide] | 1.5% | 16.1% | 24.9% | -10.2%
C=CC(=O)N1CCC[C@@H](c2c(F)cc(C(N)=O)c3[nH]c4c(c23)CCC4)C1 [Compound 10-2, (S)-8-(1-acryloylpiperidin-3-yl)-7-fluoro-1,2,3,4-tetrahydrocyclo-penta[b]indole-5-carboxamide] | -42.3% | 3.2% | 20.2% | 1.7%
